Laboratory results reported in PubChem BioAssay AID1963977 (Molecular Pharmacology Branch, DTP, NCI, 2024).
Blank lines part the entries; values can stand above or below the compound they belong to.

Test system: 624824-186-R-J3-PDC multicell spheroids, viability
Test: Anticancer human tumor 624824-186-R-J3-PDC patient-derived colon adenocarcinoma cell line growth inhibition [PI3K]
Conditions: for IC50: curve of first compound; for viability, T/C: stronger effect = lower value
Procedure, shortened: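 Spheroid viability read-out. Co-cultures contained the tumor line plus HUVEC and human MSCs. Each agent was paired with a PI3K inhibitor (inavolisib, alpelisib, duvelisib, copanlisib) across half-log dilutions starting at clinical Cmax, or at 10 microM when Cmax was unknown.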

[1] = second compound 0.00316 µM, first compound 0.000316 µM
[2] = second compound 0.00316 µM, first compound 0.001 µM
[3] = second compound 0.00316 µM, first compound 0.00316 µM
[4] = second compound 0.00316 µM, first compound 0.01 µM
[5] = second compound 0.00316 µM, first compound 0.0316 µM
[6] = second compound 0.00316 µM, first compound 0.1 µM
[7] = second compound 0.01 µM, first compound 0.000316 µM
[8] = second compound 0.01 µM, first compound 0.001 µM
[9] = second compound 0.01 µM, first compound 0.00316 µM
[10] = second compound 0.01 µM, first compound 0.01 µM
[11] = second compound 0.01 µM, first compound 0.0316 µM
[12] = second compound 0.01 µM, first compound 0.1 µM
[13] = second compound 0.0316 µM, first compound 0.000316 µM
[14] = second compound 0.0316 µM, first compound 0.001 µM
[15] = second compound 0.0316 µM, first compound 0.00316 µM
[16] = second compound 0.0316 µM, first compound 0.01 µM
[17] = second compound 0.0316 µM, first compound 0.0316 µM
[18] = second compound 0.0316 µM, first compound 0.1 µM
[19] = second compound 0.1 µM, first compound 0.000316 µM
[20] = second compound 0.1 µM, first compound 0.001 µM
[21] = second compound 0.1 µM, first compound 0.00316 µM
[22] = second compound 0.1 µM, first compound 0.01 µM
[23] = second compound 0.1 µM, first compound 0.0316 µM
[24] = second compound 0.1 µM, first compound 0.1 µM
[25] = second compound 0.316 µM, first compound 0.000316 µM
[26] = second compound 0.316 µM, first compound 0.001 µM
[27] = second compound 0.316 µM, first compound 0.00316 µM
[28] = second compound 0.316 µM, first compound 0.01 µM
[29] = second compound 0.316 µM, first compound 0.0316 µM
[30] = second compound 0.316 µM, first compound 0.1 µM
[31] = second compound 1 µM, first compound 0.000316 µM
[32] = second compound 1 µM, first compound 0.001 µM
[33] = second compound 1 µM, first compound 0.00316 µM
[34] = second compound 1 µM, first compound 0.01 µM
[35] = second compound 1 µM, first compound 0.0316 µM
[36] = second compound 1 µM, first compound 0.1 µM
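Note: spheroids exposed to agents for seven days before luminescence read.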
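Throughout, for viability, T/C: luminescent signal used as a stand-in for spheroid viability; percent viability relative to DMSO vehicle control wells taken as 100%.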

IC50 (second compound 0.00316 µM): > 0.1 µM | IC50 (second compound 0.01 µM): > 0.1 µM | IC50 (second compound 0.0316 µM): > 0.1 µM | IC50 (second compound 0.1 µM): 0.093 µM | IC50 (second compound 0.316 µM): 0.000852 µM | IC50 (second compound 1 µM): < 0.000316 µM
SMILES: CC(=O)c1c(C)c2cnc(Nc3ccc(N4CCNCC4)cn3)nc2n(C2CCCC2)c1=O + COc1c(OCCCN2CCOCC2)ccc2c3n(c(=NC(=O)c4cnc(N)nc4)nc12)CCN3
viability, T/C [1]: 99.3% | viability, T/C [2]: 97.3% | viability, T/C [3]: 107% | viability, T/C [4]: 96.7% | viability, T/C [5]: 93% | viability, T/C [6]: 108% | viability, T/C [7]: 104% | viability, T/C [8]: 103% | viability, T/C [9]: 104% | viability, T/C [10]: 105% | viability, T/C [11]: 98.8% | viability, T/C [12]: 116% | viability, T/C [13]: 90.9% | viability, T/C [14]: 106% | viability, T/C [15]: 86.6% | viability, T/C [16]: 87.3% | viability, T/C [17]: 93.7% | viability, T/C [18]: 80.4% | viability, T/C [19]: 75.1% | viability, T/C [20]: 75.8% | viability, T/C [21]: 74.4% | viability, T/C [22]: 74% | viability, T/C [23]: 70.5% | viability, T/C [24]: 48.6% | viability, T/C [25]: 52.9% | viability, T/C [26]: 46.5% | viability, T/C [27]: 49.9% | viability, T/C [28]: 40.2% | viability, T/C [29]: 35.6% | viability, T/C [30]: 26.4% | viability, T/C [31]: 27.6% | viability, T/C [32]: 32% | viability, T/C [33]: 28.3% | viability, T/C [34]: 26.7% | viability, T/C [35]: 21.5% | viability, T/C [36]: 19.7%

IC50 (second compound 0.00316 µM): > 0.1 µM | IC50 (second compound 0.01 µM): > 0.1 µM | IC50 (second compound 0.0316 µM): 0.0602 µM | IC50 (second compound 0.1 µM): 0.0292 µM | IC50 (second compound 0.316 µM): 0.00166 µM | IC50 (second compound 1 µM): < 0.000316 µM
SMILES: CC(C)n1nc(-c2ccc3oc(N)nc3c2)c2c(N)ncnc21 + COc1c(OCCCN2CCOCC2)ccc2c3n(c(=NC(=O)c4cnc(N)nc4)nc12)CCN3
viability, T/C [1]: 108% | viability, T/C [2]: 106% | viability, T/C [3]: 106% | viability, T/C [4]: 99.2% | viability, T/C [5]: 89.1% | viability, T/C [6]: 52.6% | viability, T/C [7]: 101% | viability, T/C [8]: 102% | viability, T/C [9]: 109% | viability, T/C [10]: 95.9% | viability, T/C [11]: 82.2% | viability, T/C [12]: 52.2% | viability, T/C [13]: 97.8% | viability, T/C [14]: 96.7% | viability, T/C [15]: 91.9% | viability, T/C [16]: 92.3% | viability, T/C [17]: 63.6% | viability, T/C [18]: 39.2% | viability, T/C [19]: 83.2% | viability, T/C [20]: 80.2% | viability, T/C [21]: 80.2% | viability, T/C [22]: 72.1% | viability, T/C [23]: 48.3% | viability, T/C [24]: 27.5% | viability, T/C [25]: 53.5% | viability, T/C [26]: 48.6% | viability, T/C [27]: 51.1% | viability, T/C [28]: 39.2% | viability, T/C [29]: 31.5% | viability, T/C [30]: 22.2% | viability, T/C [31]: 28.5% | viability, T/C [32]: 28.8% | viability, T/C [33]: 31.4% | viability, T/C [34]: 23.9% | viability, T/C [35]: 24.9% | viability, T/C [36]: 18.6%
